Laboratory results reported in patent US20100048482A1, “COMPOSITIONS AND METHODS FOR MODULATING EPSILON PROTEIN KINASE C-MEDIATED CYTOPROTECTION” (Board of Trustees of the Leland Stanford Junior University, priority 2008, published 2010).

Tests used:
εPKC = biological target: T1, εPKC (Rattus norvegicus, UniProt P09216); test: IR-induced mitochondrial translocation of εPKC (western blot of heart mitochondrial fraction); details: GA 5 μm during reperfusion; n=5; p<0.05
T1 construct: Rat heart ventricles were removed from the cannula and homogenized; from tissue; host or cells: Wistar rat heart ventricle; mitochondrial, IMM or plasma membrane fractions
T1 sequence (P09216 1-737): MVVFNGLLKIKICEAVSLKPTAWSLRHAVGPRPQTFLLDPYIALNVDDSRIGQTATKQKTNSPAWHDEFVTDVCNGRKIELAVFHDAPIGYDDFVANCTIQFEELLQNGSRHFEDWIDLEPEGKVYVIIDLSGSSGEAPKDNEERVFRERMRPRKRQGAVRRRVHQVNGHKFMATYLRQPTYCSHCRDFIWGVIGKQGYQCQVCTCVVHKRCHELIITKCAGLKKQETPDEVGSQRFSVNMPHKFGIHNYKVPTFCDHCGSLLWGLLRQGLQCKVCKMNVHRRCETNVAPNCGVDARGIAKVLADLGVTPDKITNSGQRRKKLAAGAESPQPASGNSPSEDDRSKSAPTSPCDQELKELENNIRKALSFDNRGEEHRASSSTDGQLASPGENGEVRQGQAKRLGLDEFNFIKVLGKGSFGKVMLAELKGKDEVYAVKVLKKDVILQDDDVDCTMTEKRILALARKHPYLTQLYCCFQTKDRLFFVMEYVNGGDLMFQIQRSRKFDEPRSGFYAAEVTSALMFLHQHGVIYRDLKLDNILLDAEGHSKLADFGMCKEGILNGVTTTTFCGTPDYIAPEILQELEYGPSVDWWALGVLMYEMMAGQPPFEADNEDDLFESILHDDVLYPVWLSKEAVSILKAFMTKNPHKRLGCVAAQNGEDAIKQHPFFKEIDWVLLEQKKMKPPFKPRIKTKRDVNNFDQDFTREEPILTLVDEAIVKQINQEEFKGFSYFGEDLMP
Description: (§1) Rat hearts (Wistar, 250-300 g) were excised and cannulated on a Langendorff apparatus via the aorta. Briefly, retrograde perfusion was carried out with a constant coronary flow rate of 10 ml/min with oxygenated Krebs-Henseleit buffer containing 120 mM NaCl, 5,8 mM KCl, 25 mM NaHCO3, […], 1.2 mM MgSO4, 1.2 mM CaCl2, and 10 mM dextrose, pH 7.4 at 37° C. After a 20 min equilibration period, hearts were subjected to a 35 min of no-flow, global ischemia followed by 15 min of reperfusion. Control hearts were perfused with normoxic Krebs buffer and were time-matched for the experimental period. […] At the end of the 15 mins reperfusion period, hearts were rapidly transferred to ice-cold homogenization buffer and subcellular fractions separated by differential centrifugation as described below.
Rat heart ventricles were removed from the cannula and homogenized in ice-cold mannitol-sucrose buffer (210 mM mannitol, 70 mM sucrose, 5 mM MOPS and 1 mM EDTA containing Sigma Protease Inhibitor 1 and Sigma Phosphatase Inhibitors 1 and 2, added per manufacturer's instructions) The resultant homogenate was filtered through gauze and centrifuged at 700 g for 5 minutes to pellet nuclei and cellular debris. […] Mitochondrial purity was also assessed by electron microscopic analysis. Protein concentration was determined by Bradford assay and 10 μg protein separated on a 12% SDS-PAGE gel and transferred to nitrocellulose. PKC translocation was measured using antibodies raised against εPKC and δPKC with mitochondrial (ANT) and cytosolic (GAPDH) markers used to ensure equal sample loading of the mitochondrial and cytosolic fractions, respectively. […]
During reperfusion, ischemia-induced cell damage was determined by measuring the activity of creatine phosphokinase (CPK) in the coronary perfusate, carried out using a standard assay kit (Equal Diagnostics, CT, USA). […] Translocation of εPKC and the related isoform δPKC to the mitochondria and plasma membrane was determined by western blotting using εPKC and δPKC antibodies (Santa Cruz Biotechnology) (FIG. 5C). […]

[1] = test system: Langendorff perfused rat heart; test: Ex vivo Langendorff perfused rat heart ischemia-reperfusion, creatine phosphokinase (CPK) release
Description: In accordance with a well-established ex vivo rat heart model for ischemia-reperfusion (see, e.g., U.S. Publication Nos. 20080167247, 20080153926, 20070299012, and 20060293237, which are herein incorporated by reference) and the method described in Example 1, hearts were removed from animals (rats) and subjected to a normoxia or an IR protocol, both depicted in FIG. 1A. The normoxia regimen comprised exposing hearts to 70 minutes of a normal oxygen state. The IR (ischemia/reperfusion) regimens comprised subjecting hearts to 20 minutes of normoxia, followed by 35 minutes of ischemia, followed by 15 minutes of reperfusion. […] The amount of necrotic cell death was then determined by measuring the release of creatine phosphokinase (CPK) into the buffer perfusate during reperfusion, which served as an indicator of ischemic damage.
as §1
Necrotic damage was determined by measurement of the release of the cardiac myocyte cytosolic enzyme, creatine phosphokinase (CPK), into the effluent (FIG. 1B). The levels are expressed in arbitrary CPK units.
Isolated rat hearts were perfused with oxygenated Krebs-Henseleit solution comprised of NaCl ([…]); KCl ([…]); NaHCO3 ([…]); NaH2O4 ([…]); MgSO4 (1.2 nmol/L); CaCl2 (1.0 nmol/L); and dextrose (10 nmol/L), pH 7.4 at 37 C. After a 10 minute equilibration period, the hearts were treated with the ψεHSP90 peptide or control buffer solution. As depicted in FIG. 5A, Perfusion was maintained at a constant flow of 10 mL/min with Krebs-Henseleit solution containing 1 μM of the appropriate peptide. The Langendorff method employs retrograde flow […] and into the coronary arteries, bypassing the pulmonary arteries. To induce global ischemia, flow was interrupted for 35 minutes. After the ischemic event, the hearts were reperfused with Krebs-Henseleit solution for 15 minutes.
During reperfusion, ischemia-induced cell damage was determined by measuring the activity of creatine phosphokinase (CPK) in the coronary perfusate, carried out using a standard assay kit (Equal Diagnostics, CT, USA). The ψεHSP90 peptide was perfused in Langendorf mode for 10 minutes before and 10 minutes after the ischemic period (1 micromolar) and myocardial injury was assayed by the release of CPK into the effluent during reperfusion (FIG. 5B). Similar to the previous results, hearts that were subjected to IR had high levels of CPK in the effluent; however, perfusion with ψεHSP90 peptide decreased CPK release by 47% (n4; p<0.05; FIG. 5B). Translocation of εPKC and the related isoform δPKC to the mitochondria and plasma membrane was determined by western blotting using εPKC and δPKC antibodies (Santa Cruz Biotechnology) (FIG. 5C). […] Physical interaction between PKCε and HSP90 was determined by co-immunoprecipitation of PKCε and HSP90 in the mitochondrial fraction in hearts exposed to normoxia or IR in the absence or presence of 1 μM ψεHSP90 (FIG. 5D).

block of IR-induced translocation of εPKC to the mitochondrial fraction (εPKC): 54%
SMILES: COC1=C2C[C@@H](C)C[C@H](OC)[C@H](O)[C@@H](C)/C=C(\C)[C@H](OC(N)=O)[C@@H](OC)/C=C\C=C(/C)C(=O)NC(=CC1=O)C2=O [GA, geldanamycin]
increase in CPK release ([1]; IR (35 min ischemia, 15 min reperfusion) with 5 μM GA during reperfusion, versus IR alone, n=7, p<0.05): 176%
effect on CPK release in the absence of IR injury ([1]; normoxic hearts, 5 μm or 10 μm GA): no effect
